Experimental data from ChEMBL document CHEMBL4396887, “Five-Membered N-Heterocyclic Scaffolds as Novel Amino Bioisosteres at γ-Aminobutyric Acid (GABA) Type A Receptors and GABA Transporters” (J Med Chem, 2019).
Activity calls are given as the source filed them. The calls are words filed in the database; no cut-off is given here.

Assays:
Format in all cases: cell-based
[1] = target: Gamma-aminobutyric acid receptor subunit alpha-5/beta-2/gamma-2 (Homo sapiens) (UniProt P47870+P18507+P31644); assay: Agonist activity at recombinant human GABA-A alpha5beta2gamma2S receptor transiently expressed in human tsA201 cells assessed as GABA-induced maximum response incubated for 30 mins and measured up to 90 secs by FMP dye based FLIPR membrane potential blue assay relative to GABA
[2] = target: Gamma-aminobutyric acid receptor subunit alpha-4/beta-2/gamma-2 (Homo sapiens, UniProt P47870+P18507+P48169); assay: Agonist activity at recombinant human GABA-A alpha4beta2gamma2S receptor transiently expressed in human tsA201 cells incubated for 30 mins and measured up to 90 secs by FMP dye based FLIPR membrane potential blue assay
[3] = target: GABA-A receptor; alpha-1/beta-2/gamma-2 (Homo sapiens) (UniProt P14867+P47870+P18507); assay: Agonist activity at recombinant human GABA-A alpha1beta2gamma2S receptor transiently expressed in human tsA201 cells assessed as GABA-induced maximum response incubated for 30 mins and measured up to 90 secs by FMP dye based FLIPR membrane potential blue assay relative to GABA
[4] = target: Sodium- and chloride-dependent GABA transporter 1 (Homo sapiens, UniProt P30531); assay: Inhibition of human GAT1 expressed in Flp-In CHO cells assessed as reduction in [3H]GABA uptake at 100 uM incubated for 3 mins by liquid scintillation counting method relative to control
[5] = target: T1, Gamma-aminobutyric acid receptor subunit alpha-5/beta-2/gamma-2 (Homo sapiens, UniProt P18507+P31644+P47870); assay: Agonist activity at recombinant human GABA-A alpha5beta2gamma2S receptor transiently expressed in human tsA201 cells incubated for 30 mins and measured up to 90 secs by FMP dye based FLIPR membrane potential blue assay
T1 sequence (P47870 whole entry): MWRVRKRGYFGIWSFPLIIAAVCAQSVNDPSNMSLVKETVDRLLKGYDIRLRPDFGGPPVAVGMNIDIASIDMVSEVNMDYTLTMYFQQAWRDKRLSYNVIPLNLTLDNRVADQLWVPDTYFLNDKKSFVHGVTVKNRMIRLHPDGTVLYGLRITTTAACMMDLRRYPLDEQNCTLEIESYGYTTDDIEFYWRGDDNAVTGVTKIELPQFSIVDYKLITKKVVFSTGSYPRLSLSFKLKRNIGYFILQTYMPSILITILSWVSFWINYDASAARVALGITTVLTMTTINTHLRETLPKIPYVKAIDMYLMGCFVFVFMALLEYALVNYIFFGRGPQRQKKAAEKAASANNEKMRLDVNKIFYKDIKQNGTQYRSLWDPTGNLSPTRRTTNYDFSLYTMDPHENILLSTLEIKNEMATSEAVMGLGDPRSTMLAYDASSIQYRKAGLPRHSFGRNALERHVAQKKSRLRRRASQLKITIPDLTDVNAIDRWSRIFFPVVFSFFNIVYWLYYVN
T1 sequence (P18507 whole entry): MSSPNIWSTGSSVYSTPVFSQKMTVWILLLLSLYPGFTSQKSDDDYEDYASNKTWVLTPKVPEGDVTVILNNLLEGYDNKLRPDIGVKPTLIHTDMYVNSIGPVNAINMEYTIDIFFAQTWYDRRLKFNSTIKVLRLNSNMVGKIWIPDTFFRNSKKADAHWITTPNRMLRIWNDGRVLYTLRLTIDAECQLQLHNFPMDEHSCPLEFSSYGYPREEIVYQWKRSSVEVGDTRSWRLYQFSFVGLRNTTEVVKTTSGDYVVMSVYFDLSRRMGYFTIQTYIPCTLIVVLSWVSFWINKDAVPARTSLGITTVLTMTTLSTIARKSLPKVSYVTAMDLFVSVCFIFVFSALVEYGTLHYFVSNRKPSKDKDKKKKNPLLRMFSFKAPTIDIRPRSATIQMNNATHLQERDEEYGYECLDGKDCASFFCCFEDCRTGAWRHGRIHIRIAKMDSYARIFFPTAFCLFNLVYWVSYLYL
T1 sequence (P31644 whole entry): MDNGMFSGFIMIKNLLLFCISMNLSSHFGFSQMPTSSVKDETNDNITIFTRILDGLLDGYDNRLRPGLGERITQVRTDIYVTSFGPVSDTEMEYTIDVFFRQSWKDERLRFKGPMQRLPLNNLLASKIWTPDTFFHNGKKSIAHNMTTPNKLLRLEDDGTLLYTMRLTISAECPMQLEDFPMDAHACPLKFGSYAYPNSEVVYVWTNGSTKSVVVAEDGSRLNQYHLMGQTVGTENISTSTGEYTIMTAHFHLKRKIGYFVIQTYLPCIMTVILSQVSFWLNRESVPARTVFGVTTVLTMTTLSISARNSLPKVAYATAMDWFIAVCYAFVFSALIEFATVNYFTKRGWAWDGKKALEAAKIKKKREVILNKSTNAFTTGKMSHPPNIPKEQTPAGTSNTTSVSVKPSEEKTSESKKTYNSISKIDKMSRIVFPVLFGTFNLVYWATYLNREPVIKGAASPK

[6] = target: T2, GABA-A receptor; alpha-1/beta-2/gamma-2 (Homo sapiens, UniProt P14867+P18507+P47870); assay: Agonist activity at recombinant human GABA-A alpha1beta2gamma2S receptor transiently expressed in human tsA201 cells incubated for 30 mins and measured up to 90 secs by FMP dye based FLIPR membrane potential blue assay
T2 sequence (P14867 whole entry): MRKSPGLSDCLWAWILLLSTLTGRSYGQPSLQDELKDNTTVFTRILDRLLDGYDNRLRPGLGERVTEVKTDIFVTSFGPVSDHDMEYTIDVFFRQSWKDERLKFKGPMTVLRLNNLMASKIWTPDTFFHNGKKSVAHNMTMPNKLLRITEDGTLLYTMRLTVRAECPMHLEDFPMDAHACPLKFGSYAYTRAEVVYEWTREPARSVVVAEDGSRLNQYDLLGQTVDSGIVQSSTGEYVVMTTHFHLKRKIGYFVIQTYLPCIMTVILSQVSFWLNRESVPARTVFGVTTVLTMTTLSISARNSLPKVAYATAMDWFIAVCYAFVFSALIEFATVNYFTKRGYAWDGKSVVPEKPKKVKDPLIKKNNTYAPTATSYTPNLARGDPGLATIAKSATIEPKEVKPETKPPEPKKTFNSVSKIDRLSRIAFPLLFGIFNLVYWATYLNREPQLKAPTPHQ
T2 sequence (P47870 whole entry): T1 sequence (P47870 whole entry)
T2 sequence (P18507 whole entry): T1 sequence (P18507 whole entry)

Sodium- and chloride-dependent GABA transporter 1, sequence (P30531 whole entry, looked up): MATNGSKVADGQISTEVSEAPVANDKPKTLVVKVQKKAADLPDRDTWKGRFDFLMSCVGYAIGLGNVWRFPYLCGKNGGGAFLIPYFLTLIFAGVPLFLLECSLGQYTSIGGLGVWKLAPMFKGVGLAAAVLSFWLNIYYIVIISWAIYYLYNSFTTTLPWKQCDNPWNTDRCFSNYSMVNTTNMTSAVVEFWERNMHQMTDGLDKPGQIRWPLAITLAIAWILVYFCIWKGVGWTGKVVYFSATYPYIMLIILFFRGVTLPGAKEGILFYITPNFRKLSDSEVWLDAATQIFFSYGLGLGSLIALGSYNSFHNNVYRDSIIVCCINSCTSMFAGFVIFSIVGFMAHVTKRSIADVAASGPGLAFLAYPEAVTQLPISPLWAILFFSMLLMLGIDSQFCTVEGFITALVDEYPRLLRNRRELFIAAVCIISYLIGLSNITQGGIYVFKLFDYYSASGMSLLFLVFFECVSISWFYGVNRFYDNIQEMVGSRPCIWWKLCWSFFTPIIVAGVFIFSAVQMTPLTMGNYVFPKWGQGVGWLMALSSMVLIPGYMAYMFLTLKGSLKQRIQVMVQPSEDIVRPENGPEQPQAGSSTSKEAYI
Gamma-aminobutyric acid receptor subunit alpha-4/beta-2/gamma-2, sequence (P48169 whole entry, one chain of several): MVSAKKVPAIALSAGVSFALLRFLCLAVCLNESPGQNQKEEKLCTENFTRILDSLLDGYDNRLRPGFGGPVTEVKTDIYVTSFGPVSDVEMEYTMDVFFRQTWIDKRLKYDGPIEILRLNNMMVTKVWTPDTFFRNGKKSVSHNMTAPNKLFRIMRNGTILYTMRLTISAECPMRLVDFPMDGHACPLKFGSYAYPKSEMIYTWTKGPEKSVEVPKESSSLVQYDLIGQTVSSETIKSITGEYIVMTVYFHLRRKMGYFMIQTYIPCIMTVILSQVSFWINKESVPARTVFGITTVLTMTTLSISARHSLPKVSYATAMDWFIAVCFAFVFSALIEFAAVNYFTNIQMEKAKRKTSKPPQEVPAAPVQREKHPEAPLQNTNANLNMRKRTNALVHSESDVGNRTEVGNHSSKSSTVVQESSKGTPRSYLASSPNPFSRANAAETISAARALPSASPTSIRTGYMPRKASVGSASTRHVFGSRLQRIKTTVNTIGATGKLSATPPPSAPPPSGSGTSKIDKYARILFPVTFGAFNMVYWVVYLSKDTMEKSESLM

| Structure (SMILES) | Rmax [1] [%] | EC50 [2] | pEC50 [2] | Rmax [3] | inhibition [4] [%] | EC50 [5] [µM] | EC50 [6] [µM] |
| --- | --- | --- | --- | --- | --- | --- | --- |
| C[C@@H](C(=O)O)[C@H]1CSC(N)=N1 (relative stereo) | 94 | Not Active | inactive | 59% | > 30 | 2.6 | 48 |
| C[C@@H]1SC(N)=N[C@@H]1CC(=O)O (relative stereo) | 92 | Not Active | inactive | inactive | > 30 | 8.2 | – |
| O=C(O)C[C@H]1CCNC1 | 99 | – | – | 93% | > 30 | 0.94 | 12 |
| O=C(O)C[C@@H]1CCNC1 | 86 | Not Active | inactive | inactive | > 30 | 24 | – |
| NC1=NC(CC(=O)O)CN1 (stereo unspecified) | 90 | – | – | 81% | > 30 | 1.6 | 11 |

More lines, in order of falling EC50 [5], values ahead:

| Rmax [1] [%] | EC50 [2] | pEC50 [2] | Rmax [3] | inhibition [4] [%] | EC50 [5] [µM] | EC50 [6] [µM] | Structure (SMILES) |
| --- | --- | --- | --- | --- | --- | --- | --- |
| 90 | Not Active | inactive | inactive | > 30 | 17 | – | C[C@H]1SC(N)=N[C@@H]1CC(=O)O (relative stereo) |
| – | Not Active | – | – | – | 11 | – | CC(C(=O)O)C1CSC(N)=N1 (stereo in doubt; l-10b) |
| 81 | Not Active | inactive | 22% | > 30 | 3 | 9.7 | C[C@@H](C(=O)O)[C@@H]1CSC(N)=N1 (relative stereo) |
| – | – | – | – | – | 2.7 | 25 | CC(C(=O)O)C1CSC(N)=N1 (stereo in doubt; l-10a) |
| 88 | – | – | 1% | > 30 | 0.79 | 7.6 | O=C(O)CC1CNC=N1 (stereo unspecified) |
| 98 | – | – | 86% | > 30 | 0.22 | 1.8 | NC1=NC(CC(=O)O)CS1 (stereo unspecified) |
